Measured values: patent US20150359798A1, “PIPERAZINYL DERIVATIVE REDUCES HIGH-FAT DIET-INDUCED ACCUMULATION OF FAT IN THE LIVERS, […]” (priority 2011, published 2015)
Counter-ions that a name gives are not always drawn. One block for each compound: values may come before it.

How the values were obtained:
PPARγ = PPARγ expression in HepG2 cells; assay type: cell-based; conditions: HepG2; for expression of PPARγ: FPP or GGPP (10 μM) alone
Description: (§1) HepG2 cells were treated with various concentrations of drugs for 24 hours. Reactions were terminated by washing twice with cold PBS, and the cells were then harvested, Proteins in the whole-cell lysate were homogenized in an ice-cold lysis buffer and a protease inhibitor (Sigma-Aldrich, St. Louis, Mo., U.S.A.). The homogenate was centrifuged at 90, 000 g for 15 minutes at 4° C., and supernatant was recovered as the total cellular protein. Cytosolic and membrane fractions of HepG2 cells were prepared using a. CNM (Cytosol Nuclear Membrane) compartment protein extraction kit (BioChain Institute Inc., Hayward, Calif., U.S.A.) according to the manufacturer's instructions. All of the fractionated protein solutions were stored at −80° C. until analysis. To measure the expression levels of proteins by drugs, the total cell protein was extracted after incubation with treatments for 24 hours and then Western blotting analysis was performed as described previously.

ABCA1 = ABCA1 expression in HepG2 cells; assay type: cell-based; conditions: HepG2; for expression of ABCA1: FPP or GGPP (10 μM) alone
Description: as §1

ROCK II = ROCK II expression in HepG2 cells; assay type: cell-based; conditions: HepG2; for RhoA/ROCK II expression: exogenous GGPP or FPP alone
Description: as §1, with “-80°” for “−80°”

PDE-5A = test: Table 4 PDE-5A (% of control); assay type: cell-based; conditions: control group = 100 (%)
ROCKII = test: Table 4 ROCKII (% of control); assay type: cell-based; conditions: control group = 100 (%)
Rho-kinase = test: Table 3 Rho-kinase (% of control); assay type: cell-based; conditions: 10 μM; control group = 100 (%)
eNOS [1] = test: Table 4 eNOS (% of control); assay type: cell-based; conditions: control group = 100 (%)
eNOS [2] = test: Table 3 eNOS (% of control); assay type: cell-based; conditions: 10 μM; control group = 100 (%)
p-HSL = test: Table 3 p-HSL (% of control); assay type: cell-based; conditions: 10 μM; control group = 100 (%)
PPAR-γ = test: Table 3 PPAR-γ (% of control); assay type: cell-based; conditions: 10 μM; control group = 100 (%)
HMG CoA reductase = HMG CoA reductase expression in HepG2 cells (Western blotting); assay type: cell-based; conditions: HepG2, mevalonate 60, 80, 100 μM
Description: The HepG2 hepatoma cell line was purchased from the American Type Culture Collection (ATCC; Manassas, Va., U.S.A.). Cells were cultured in DMEM. The culture media was supplemented with 5% heat-Inactivated FBS, penicillin (100 U/mL) and streptomycin (100 μg/mL). Cells were grown in a humidified atmosphere containing 5% CO2 at 37° C., in which the oxygen tension in the incubator was held at 140 mmHg (20% O2, v/v; normoxic conditions).
as §1

mice fed with HFD = test: HFD-fed mice, 8 weeks, gavage: serum/liver lipids, body weight, food intake; assay type: in vivo; conditions: HFD mice, 8 weeks, 5 mg/kg
Description: In the 8 week experiment, C57BL/6J male mice (21-22 g), after fasting, were fed a HFD as a model of hyperlipidemia for 8 weeks. During the 2 month experiments, mice fasted for one night before the experiment was changed from a standard diet (STD) to a HFD and then the mice were randomly divided into 5 groups, including 2 control and 3 treatment groups. Six mice were used in each group. […] Liver from the protection group supplemented with KMUP-1 HCl (1 mg/kg/day) were used to determine the HMG CoA reductase expression.
Within 2 months, the 3 day food intake average for each animal was measured. The weight gain and plasma lipid levels of each group were determined and compared to the non-treatment control group. Mouse blood was collected during the daytime by cardiac puncture followed by centrifugation at 90 g (Benchtop Centrifuge, U.S.A.) to separate the serum, and frozen at −80° C., for biochemical analysis using a Hitachi Clinical Analyzer 7070 (Hitachi High-Technologies Co. Tokyo, Japan). Agents used in the assays were Obtained from Merck & Co. (Kenilworth, N.J., U.S.A.). Triglyceride (TG), total cholesterol, HDL cholesterol and LDL cholesterol in mouse serum were measured by methods used in the clinic. To measure the hepatic TG, isolated liver were cut into small chips.

[3] = simvastatin, KMUP-1, Y27632 10^−5M, C3 exoenzyme

SMILES: CC(C)=CCC/C(C)=C/CC/C(C)=C/COP(=O)(O)OP(=O)(O)O [FPP, farnesyl pyrophosphate, reference compound]
expression of PPARγ (PPARγ): suppressed
expression of ABCA1 (ABCA1): suppressed
RhoA/ROCK II expression (ROCK II): increased

SMILES: CC(C)=CCC/C(C)=C/CC/C(C)=C/CC/C(C)=C/COP(=O)(O)OP(=O)(O)O [GGPP, geranylgeranyl pyrophosphate, reference compound]
expression of PPARγ (PPARγ): suppressed
expression of ABCA1 (ABCA1): suppressed
RhoA/ROCK II expression (ROCK II): increased

SMILES: COc1ccccc1N1CCN(CCn2cnc3c2c(=O)n(C)c(=O)n3C)CC1 [KMUP-2 HCl]
PDE-5A (PDE-5A): 68.8 ± 5.3%
ROCKII (ROCKII): 40.8 ± 3.7%

Rho-kinase (Rho-kinase): 81.9 ± 8.2%
SMILES: COc1ccccc1N1CCN(CCn2cnc3c2c(=O)n(C)c(=O)n3C)CC1 [KMUP-2, 7-[2-[4-(2-methoxybenzene)piperazinyl]ethyl]-1,3-dimethylxanthine]

SMILES: Cl.Cn1c(=O)c2c(ncn2CCN2CCN(c3ccc([N+](=O)[O-])cc3)CC2)n(C)c1=O [KMUP-3 HCl, 7-[2-[4-(4-nitrobenzene)piperazinyl]ethyl]-1,3-dimethyl xanthine HCl complex]
PDE-5A (PDE-5A): 63.6 ± 5.2%
eNOS (eNOS [1]): 148.31 ± 7.5%
ROCKII (ROCKII): 44.5 ± 2.9%

SMILES: Cn1c(=O)c2c(ncn2CCN2CCN(c3ccccc3[N+](=O)[O-])CC2)n(C)c1=O [KMUP-3, 7-[2-[4-(2-nitrobenzene)piperazinyl]ethyl]-1,3-dimethylxanthine]
eNOS (eNOS [2]): 131.5 ± 13.7%
Rho-kinase (Rho-kinase): 79.4 ± 6.9%
p-HSL (p-HSL): 138.2 ± 14.4%
PPAR-γ (PPAR-γ): 140.8 ± 15.7%

SMILES: Cn1c(=O)c2c(ncn2CCN2CCN(c3ccccc3[N+](=O)[O-])CC2)n(C)c1=O [KMUP-4 HCl]
PDE-5A (PDE-5A): 73.4 ± 3.4%
eNOS (eNOS [1]): 135.24 ± 7.5%
ROCKII (ROCKII): 37.6 ± 2.8%

SMILES: Cn1c(=O)c2c(ncn2CCN2CCN(c3ccccc3[N+](=O)[O-])CC2)n(C)c1=O [KMUP-4, 7-[2-[4-(2-nitrobenzene)piperazinyl]ethyl]-1,3-dimethylxanthine]
eNOS (eNOS [2]): 125.6 ± 13.6%
Rho-kinase (Rho-kinase): 83.7 ± 7.5%
p-HSL (p-HSL): 136.5 ± 12.6%
PPAR-γ (PPAR-γ): 143.7 ± 11.3%

SMILES: Nc1nc2c(nc(Sc3ccc(Cl)cc3)n2[C@@H]2O[C@@H]3CO[P@@](=O)(S)O[C@H]3[C@H]2O)c(=O)[nH]1 [Rp-8-pCPT-cGMPS, 8-(p-chloro-phenylthio)guanosine-3,5-monophosphorothioate]
ROCK II expression (ROCK II; 10 μM cGMP antagonist): increased

SMILES: C[C@@H](N)[C@H]1CC[C@H](C(=O)Nc2ccncc2)CC1 [Y27632, reference compound]
PPARγ expression (FIG. 24C) (PPARγ; [3]): increased
ABCA1 expression (FIG. 24D) (ABCA1; [3]): increased
ROCK II expression (ROCK II; C3 exoenzyme 5 μg/ml, Y27632 10 μM): reduced

SMILES: CC(O)(CCO)CC(=O)O (stereo not shown) [mevalonate, reference compound]
HMG CoA reductase expression (HMG CoA reductase): concentration-dependently reduced

SMILES: CCC(C)(C)C(=O)O[C@H]1C[C@@H](C)C=C2C=C[C@H](C)[C@H](CC[C@@H]3C[C@@H](O)CC(=O)O3)[C@H]21 [simvastatin, reference compound]
HDL cholesterol (mice fed with HFD): 103.2 ± 2.5 mg/dL
LDL cholesterol (mice fed with HFD): 15.3 ± 1.3 mg/dL
TG in serum (mice fed with HFD): 82.7 ± 6.3 mg/dL
TG of liver (mice fed with HFD): 34.5 ± 2.** mg/dl
Tot. chol. (total cholesterol) (mice fed with HFD): 133.7 ± 4.3 mg/dL
final BW (Body weight) (mice fed with HFD): 23.9 ± 0.9 g
